Measurements reported in patent publication US9796706B2, “Inhibitors of Jun N-terminal kinase” (IMAGO PHARMACEUTICALS, INC., priority 2009, dated 2017).

Assays:
Assay type in all cases: biochemical
Conditions in all cases: procedures of Example 14 (TR-FRET)
[1] = target: JNK1 (Homo sapiens (Human), UniProt P45983); assay: JNK1 TR-FRET kinase assay (Example 14)
How it was run: (§1)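 Two TR-FRET formats were used for each JNK isoform. In the direct one, preactivated aJNK phosphorylated EPIW-1 at about 1 mM final ATP (RT, 15 min). Both were EDTA-quenched and read by HTRF.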

[2] = target: JNK3 (Homo sapiens (Human), UniProt P53779); assay: JNK3 TR-FRET kinase assay (Example 14)
Chain of JNK3 (P53779 whole entry, species assumed): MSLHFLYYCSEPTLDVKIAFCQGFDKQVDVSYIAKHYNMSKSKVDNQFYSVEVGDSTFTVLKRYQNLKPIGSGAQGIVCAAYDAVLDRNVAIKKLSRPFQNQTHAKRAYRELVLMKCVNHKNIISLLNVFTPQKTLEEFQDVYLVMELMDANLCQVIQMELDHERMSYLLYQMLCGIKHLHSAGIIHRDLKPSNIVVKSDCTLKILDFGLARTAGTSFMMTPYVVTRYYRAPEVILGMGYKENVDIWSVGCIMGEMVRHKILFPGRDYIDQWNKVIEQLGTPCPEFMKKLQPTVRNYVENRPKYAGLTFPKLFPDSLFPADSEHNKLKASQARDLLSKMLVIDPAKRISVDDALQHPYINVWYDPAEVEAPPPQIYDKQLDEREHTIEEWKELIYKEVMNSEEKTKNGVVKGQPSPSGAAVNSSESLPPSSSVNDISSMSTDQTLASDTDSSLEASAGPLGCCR
How it was run: as §1

[3] = target: JNK2 (Homo sapiens (Human), UniProt P45984); assay: JNK2 TR-FRET kinase assay (Example 14)
Chain of JNK2 (P45984 whole entry, species assumed): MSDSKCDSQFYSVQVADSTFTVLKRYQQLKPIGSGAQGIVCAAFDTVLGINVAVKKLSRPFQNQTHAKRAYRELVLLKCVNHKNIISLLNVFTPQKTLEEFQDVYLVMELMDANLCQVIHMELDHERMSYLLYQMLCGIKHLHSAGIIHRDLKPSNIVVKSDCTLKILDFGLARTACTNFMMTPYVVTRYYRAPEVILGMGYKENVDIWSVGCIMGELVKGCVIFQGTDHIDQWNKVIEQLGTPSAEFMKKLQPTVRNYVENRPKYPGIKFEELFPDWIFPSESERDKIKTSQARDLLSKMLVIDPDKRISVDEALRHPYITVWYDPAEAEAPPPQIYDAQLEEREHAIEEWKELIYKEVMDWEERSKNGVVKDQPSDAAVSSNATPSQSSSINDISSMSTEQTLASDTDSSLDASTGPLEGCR
How it was run: as §1

Chain of JNK1 (P45983 other isoform, or with tags, fused parts or gaps isoform P45983-2, species assumed): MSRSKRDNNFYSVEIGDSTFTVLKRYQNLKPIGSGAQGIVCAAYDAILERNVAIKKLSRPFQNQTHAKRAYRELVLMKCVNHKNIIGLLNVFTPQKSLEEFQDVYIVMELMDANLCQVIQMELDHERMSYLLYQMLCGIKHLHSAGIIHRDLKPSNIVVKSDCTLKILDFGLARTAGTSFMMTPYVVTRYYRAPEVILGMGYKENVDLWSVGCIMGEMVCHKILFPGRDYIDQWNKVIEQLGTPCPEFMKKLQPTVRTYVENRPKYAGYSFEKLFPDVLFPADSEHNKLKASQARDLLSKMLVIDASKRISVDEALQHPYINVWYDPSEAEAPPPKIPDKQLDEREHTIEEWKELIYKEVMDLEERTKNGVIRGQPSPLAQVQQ

SMILES | IC50 [1] | IC50 [2] | IC50 [3]
O=C(Cc1cc(C(F)(F)F)cc2ncccc12)Nc1scc(Br)c1-c1nnc[nH]1 [N-(4-bromo-3-(4H-1,2,4-triazol-3-yl)thiophen-2-yl)-2-(7-(trifluoromethyl)quinolin-5-yl)acetamide] | 0.1 to 10 µM | 0.1 to 10 µM | 0.1 to 10 µM
O=C(Cc1cncc2ccccc12)Nc1scc(Br)c1-c1nnc[nH]1 [N-(4-bromo-3-(4H-1,2,4-triazol-3-yl)thiophen-2-yl)-2-(isoquinolin-4-yl)acetamide] | < 0.1 µM | < 0.1 µM | 0.1 to 10 µM
O=C(Cc1ccnc2ccccc12)Nc1scc(Br)c1-c1nnc[nH]1 [N-(4-bromo-3-(4H-1,2,4-triazol-3-yl)thiophen-2-yl)-2-(quinolin-4-yl)acetamide] | < 0.1 µM | < 0.1 µM | 0.1 to 10 µM
O=C(CN1C(=O)CCc2ncccc21)Nc1scc(Br)c1-c1ncco1 [N-(4-bromo-3-(oxazol-2-yl)thiophen-2-yl)-2-(2-oxo-3,4-dihydro-1,5-naphthyridin-1(2H)-yl)acetamide] | < 0.1 µM | < 0.1 µM | < 0.1 µM
O=C(CN1C(=O)CCc2ncccc21)Nc1scc(Br)c1-c1nccs1 [N-(4-bromo-3-(thiazol-2-yl)thiophen-2-yl)-2-(2-oxo-3,4-dihydro-1,5-naphthyridin-1(2H)-yl)acetamide] | < 0.1 µM | < 0.1 µM | 0.1 to 10 µM
CN(C)CCn1cnc(-c2c(Cl)csc2NC(=O)Cn2c(=O)ccc3cc(C(F)(F)F)ccc32)n1 [N-(4-chloro-3-(1-(2-(dimethylamino)ethyl)-1H-1,2,4-triazol-3-yl)thiophen-2-yl)-2-(2-oxo-6-(trifluoromethyl)quinolin-1(2H)-yl)acetamide] | < 0.1 µM | < 0.1 µM | < 0.1 µM
CN1CCN(CCCn2cnc(-c3c(Cl)csc3NC(=O)Cn3c(=O)ccc4cc(C(F)(F)F)ccc43)n2)CC1 [N-(4-chloro-3-(1-(3-(4-methylpiperazin-1-yl)propyl)-1H-1,2,4-triazol-3-yl)thiophen-2-yl)-2-(2-oxo-6-(trifluoromethyl)quinolin-1(2H)-yl)acetamide] | < 0.1 µM | < 0.1 µM | 0.1 to 10 µM
CN(C)CCCn1cnc(-c2c(Cl)csc2NC(=O)Cn2c(=O)ccc3cc(C(F)(F)F)ccc32)n1 [N-(4-chloro-3-(1-(3-(dimethylamino)propyl)-1H-1,2,4-triazol-3-yl)thiophen-2-yl)-2-(2-oxo-6-(trifluoromethyl)quinolin-1(2H)-yl)acetamide] | < 0.1 µM | < 0.1 µM | < 0.1 µM
O=C(Cn1c(=O)ccc2cc(C(F)(F)F)ccc21)Nc1scc(Cl)c1-c1ncn(CCCN2CCCC2)n1 [N-(4-chloro-3-(1-(3-(pyrrolidin-1-yl)propyl)-1H-1,2,4-triazol-3-yl)thiophen-2-yl)-2-(2-oxo-6-(trifluoromethyl)quinolin-1(2H)-yl)acetamide] | < 0.1 µM | < 0.1 µM | < 0.1 µM
O=C(Cn1c(=O)ccc2cc(C(F)(F)F)ccc21)Nc1scc(Cl)c1-c1ncn(CCCN2CCOCC2)n1 [N-(4-chloro-3-(1-(3-morpholinopropyl)-1H-1,2,4-triazol-3-yl)thiophen-2-yl)-2-(2-oxo-6-(trifluoromethyl)quinolin-1(2H)-yl)acetamide] | < 0.1 µM | < 0.1 µM | < 0.1 µM
Cn1cnc(-c2c(Cl)csc2NC(=O)CN2C(=O)CCc3ncccc32)n1 [N-(4-chloro-3-(1-methyl-1H-1,2,4-triazol-3-yl)thiophen-2-yl)-2-(2-oxo-3,4-dihydro-1,5-naphthyridin-1(2H)-yl)acetamide] | < 0.1 µM | < 0.1 µM | < 0.1 µM
Cn1cnc(-c2c(Cl)csc2NC(=O)Cn2c(=O)ccc3nc(C(F)(F)F)ccc32)n1 [N-(4-chloro-3-(1-methyl-1H-1,2,4-triazol-3-yl)thiophen-2-yl)-2-(2-oxo-6-(trifluoromethyl)-1,5-naphthyridin-1(2H)-yl)acetamide] | < 0.1 µM | < 0.1 µM | < 0.1 µM
Cn1cnc(-c2c(Cl)csc2NC(=O)Cn2c(=O)ccc3cnc(C(F)(F)F)cc32)n1 [N-(4-chloro-3-(1-methyl-1H-1,2,4-triazol-3-yl)thiophen-2-yl)-2-(2-oxo-7-(trifluoromethyl)-1,6-naphthyridin-1(2H)-yl)acetamide] | < 0.1 µM | < 0.1 µM | < 0.1 µM
Cn1cnc(-c2c(Cl)csc2NC(=O)Cn2c(=O)ccn3nc(C(F)(F)F)cc23)n1 [N-(4-chloro-3-(1-methyl-1H-1,2,4-triazol-3-yl)thiophen-2-yl)-2-(5-oxo-2-(trifluoromethyl)pyrazolo[1,5-a]pyrimidin-4(5H)-yl)acetamide] | < 0.1 µM | < 0.1 µM | < 0.1 µM
Cn1cnc(-c2c(Cl)csc2NC(=O)Cn2c(=O)ccn3nccc23)n1 [N-(4-chloro-3-(1-methyl-1H-1,2,4-triazol-3-yl)thiophen-2-yl)-2-(5-oxopyrazolo[1,5-a]pyrimidin-4(5H)-yl)acetamide] | < 0.1 µM | < 0.1 µM | < 0.1 µM
O=C(CN1C(=O)CCc2ncccc21)Nc1scc(Cl)c1-c1nc[nH]n1 [N-(4-chloro-3-(1H-1,2,4-triazol-3-yl)thiophen-2-yl)-2-(2-oxo-3,4-dihydro-1,5-naphthyridin-1(2H)-yl)acetamide] | < 0.1 µM | < 0.1 µM | < 0.1 µM
O=C(Cn1c(=O)ccc2cnc(C(F)(F)F)cc21)Nc1scc(Cl)c1-c1nc[nH]n1 [N-(4-chloro-3-(1H-1,2,4-triazol-3-yl)thiophen-2-yl)-2-(2-oxo-7-(trifluoromethyl)-1,6-naphthyridin-1(2H)-yl)acetamide] | < 0.1 µM | < 0.1 µM | < 0.1 µM
N#Cc1ccc2c(ccc(=O)n2CC(=O)Nc2scc(Cl)c2-c2nc[nH]n2)c1 [N-(4-chloro-3-(1H-1,2,4-triazol-3-yl)thiophen-2-yl)-2-(6-cyano-2-oxoquinolin-1(2H)-yl)acetamide] | < 0.1 µM | < 0.1 µM | < 0.1 µM
O=C(CN1C(=O)CCc2ccccc21)Nc1scc(Cl)c1-c1ncn[nH]1 [N-(4-chloro-3-(1H-1,2,4-triazol-5-yl)thiophen-2-yl)-2-(2-oxo-3,4-dihydroquinolin-1(2H)-yl)acetamide] | < 0.1 µM | < 0.1 µM | < 0.1 µM
O=C(Cn1c(=O)ccc2nc(C(F)(F)F)ccc21)Nc1scc(Cl)c1-c1ncn[nH]1 [N-(4-chloro-3-(1H-1,2,4-triazol-5-yl)thiophen-2-yl)-2-(2-oxo-6-(trifluoromethyl)-1,5-naphthyridin-1(2H)-yl)acetamide] | < 0.1 µM | < 0.1 µM | < 0.1 µM
O=C(Cn1c(=O)ccc2cc(C(F)(F)F)ccc21)Nc1scc(Cl)c1-c1ncn[nH]1 [N-(4-chloro-3-(1H-1,2,4-triazol-5-yl)thiophen-2-yl)-2-(2-oxo-6-(trifluoromethyl)quinolin-1(2H)-yl)acetamide] | < 0.1 µM | < 0.1 µM | < 0.1 µM
O=C(Cn1c(=O)ccn2nc(C(F)(F)F)cc12)Nc1scc(Cl)c1-c1ncn[nH]1 [N-(4-chloro-3-(1H-1,2,4-triazol-5-yl)thiophen-2-yl)-2-(5-oxo-2-(trifluoromethyl)pyrazolo[1,5-a]pyrimidin-4(5H)-yl)acetamide] | < 0.1 µM | < 0.1 µM | < 0.1 µM
O=C(Cn1c(=O)ccn2nccc12)Nc1scc(Cl)c1-c1ncn[nH]1 [N-(4-chloro-3-(1H-1,2,4-triazol-5-yl)thiophen-2-yl)-2-(5-oxopyrazolo[1,5-a]pyrimidin-4(5H)-yl)acetamide] | < 0.1 µM | < 0.1 µM | < 0.1 µM
O=C(Cc1ccc(C(F)(F)F)c2ncccc12)Nc1scc(Cl)c1-c1ncn[nH]1 [N-(4-chloro-3-(1H-1,2,4-triazol-5-yl)thiophen-2-yl)-2-(8-(trifluoromethyl)quinolin-5-yl)acetamide] | < 0.1 µM | 0.1 to 10 µM | 0.1 to 10 µM
O=C(Cc1cccc2ncccc12)Nc1scc(Cl)c1-c1ncn[nH]1 [N-(4-chloro-3-(1H-1,2,4-triazol-5-yl)thiophen-2-yl)-2-(quinolin-5-yl)acetamide] | < 0.1 µM | < 0.1 µM | < 0.1 µM
CCc1n[nH]c(-c2c(Cl)csc2NC(=O)CN2C(=O)CCc3ncccc32)n1 [N-(4-chloro-3-(3-ethyl-1H-1,2,4-triazol-5-yl)thiophen-2-yl)-2-(2-oxo-3,4-dihydro-1,5-naphthyridin-1(2H)-yl)acetamide] | < 0.1 µM | < 0.1 µM | 0.1 to 10 µM
CC(C)c1n[nH]c(-c2c(Cl)csc2NC(=O)CN2C(=O)CCc3ncccc32)n1 [N-(4-chloro-3-(3-isopropyl-1H-1,2,4-triazol-5-yl)thiophen-2-yl)-2-(2-oxo-3,4-dihydro-1,5-naphthyridin-1(2H)-yl)acetamide] | < 0.1 µM | 0.1 to 10 µM | 0.1 to 10 µM
Cc1n[nH]c(-c2c(Cl)csc2NC(=O)CN2C(=O)CCc3ncccc32)n1 [N-(4-chloro-3-(3-methyl-1H-1,2,4-triazol-5-yl)thiophen-2-yl)-2-(2-oxo-3,4-dihydro-1,5-naphthyridin-1(2H)-yl)acetamide] | < 0.1 µM | < 0.1 µM | < 0.1 µM
O=C(CN1C(=O)CCc2ncccc21)Nc1scc(Cl)c1-c1nccs1 [N-(4-chloro-3-(thiazol-2-yl)thiophen-2-yl)-2-(2-oxo-3,4-dihydro-1,5-naphthyridin-1(2H)-yl)acetamide] | < 0.1 µM | < 0.1 µM | < 0.1 µM
Cn1cnc(-c2c(C#N)csc2NC(=O)CN2C(=O)CCc3ncccc32)n1 [N-(4-cyano-3-(1-methyl-1H-1,2,4-triazol-3-yl)thiophen-2-yl)-2-(2-oxo-3,4-dihydro-1,5-naphthyridin-1(2H)-yl)acetamide] | < 0.1 µM | < 0.1 µM | < 0.1 µM
